Data taken from patent US20260014118A1, “VITAMINS FOR USE IN IMPROVING GUT HEALTH” (DSM IP ASSETS B.V., priority 2022, published 2026).

Tested on: Bifidobacterium animalis ssp. lactis DSM 32269
Test: Short-term batch-fermentation (colonic incubation, M-SHIME colon model) with fecal inocula of six human donors; qPCR on groEL gene
Type: cell-based
Details: 48 h colonic incubation; for levels of Bifidobacterium animalis ssp. lactis (DSM 32269 specific groEL gene copies) in the lumen environment, as compared to the respective control: average of six donors, co-supplemented with probiotic 1*10^9 CFU, vitamin B2 0.01667 g/L, vitamin C 0.333 g/L, vitamin D3 0.000025 g/L
Description: A short-term batch-fermentation experiment was carried out by ProDigest, consisting of a colonic incubation of a representative dose of a selected vitamin with a representative bacterial inoculum under simulated conditions for the proximal large intestine. In the current experiment, the bacterial inocula were derived from fresh fecal samples of six different healthy adult donors. Incubations were performed as described previously (Van den Abbeele, P.; Taminiau, B.; Pinheiro, I.; Duysburgh, C.; Jacobs, H.; Pijls, L.; Marzorati, M. Arabinoxylo-Oligosaccharides and Inulin Impact Inter-Individual Variation on Microbial Metabolism and Composition, Which Immunomodulates Human Cells. J. Agric. Food Chem. 2018, 66, 1121-1130). At the start of the short-term colonic incubation, fresh fecal material from six healthy human donors was collected and upon preparation of an anaerobic fecal slurry, this slurry was inoculated at 10 vol % in a SHIME nutritional medium containing basal nutrients containing 3.5 g/L K2HPO4, 10.9 g/L KH2PO4, 2 g/L NaHCO3(Chem-lab NV, Zedelgem, Belgium), 2 g/L yeast extract, 2 g/L peptone (Oxoid, Aalst, Belgium), 1 g/L mucin (Carl Roth, Karlsruhe, Germany), 0.5 g/L L-cysteine and 2 mL/L Tween80 (Sigma-Aldrich, Bornem, Belgium). All test ingredients (i.e., probiotic strain, vitamin B2, C, or D3) were also added to the SHIME medium. Furthermore, M-SHIME® technology was incorporated in the current experiment by adding mucin-covered microcosms (modeling the mucus of the colon) to the incubations as described previously (Van den Abbeele, P., et al. (2013). Butyrate-producing Clostridium cluster XIVa species specifically colonize mucins in an in vitro gut model. The ISME Journal 7 (5), 949-961). Incubations were performed for 48 h, at 37° C., under shaking (90 rpm) and anaerobic conditions.
In this study, the Bifidobacterium animalis ssp. lactis BB-12 equivalent Bifidobacterium animalis ssp. lactis DSM 32269 (Biocare Copenhagen) was added to the colon model containing the donor samples, alone or in combination with vitamin B2, C, or D (see Table 1). After 48 h of incubation, the abundance of the added strain was analyzed using primers that are specific for Bifidobacterium animalis ssp. lactis BB-12/Bifidobacterium animalis ssp. lactis DSM 32269. Experiments were performed in single repetition.
The Bifidobacterium animalis ssp. lactis BB-12 equivalent strain Bifidobacterium animalis ssp. lactis DSM 32269 was added to the SHIME medium as an overnight grown culture at a concentration of 1*10^9 CFU. The probiotic strain was either supplemented alone or in combination with vitamin B2, vitamin C or vitamin D3 (DSM). Vitamin B2, C, and D3 was added at a concentration of 0.01667 g/L, 0.333 g/L and 0.000025 g/L, respectively, which translates into a 10 mg, 200 mg, and […] dose, respectively, given that the colon volume is about 600 ml.
qPCR was performed on groEL gene (NCBI reference CP003497) to monitor the level of the supplemented Bifidobacterium animalis ssp. lactis DSM 32269 strain within the gut microbiome, as described previously (Junick et al. (2012), Quantification of Human Fecal Bifidobacterium Species by Use of Quantitative Real-Time PCR Analysis Targeting the groEL Gene). Samples were analyzed from the lumen and mucus environment following 48 h of incubation.
Statistical analysis was performed to investigate the average effect of the test products. For this purpose, the average over the six donors was calculated for each endpoint. […]

[1] = control = probiotic only, p<0.05

Row | Structure (SMILES) | levels of Bifidobacterium animalis ssp. lactis (DSM 32269 specific groEL gene copies) in the lumen environment, as compared to the respective control [1] | levels of Bifidobacterium animalis ssp. lactis in the mucus environment, as compared to the respective control (mucus, vitamin B2 0.01667 g/L co-supplemented with probiotic, control = probiotic only, p<0.05) | copies of the Bifidobacterium animalis ssp. lactis DSM 32269 specific groEL gene in the mucus environment, relative to control (mucus, vitamin B2 0.01667 g/L co-supplemented with probiotic, versus probiotic only)
1 | Cc1cc2nc3c(=O)[nH]c(=O)nc-3n(C[C@H](O)[C@H](O)[C@H](O)CO)c2cc1C [vitamin B2, riboflavin] | significantly increased | significantly increased | around 6 times
2 | O=C1O[C@H]([C@@H](O)CO)C(O)=C1O [vitamin C, L-ascorbic acid] | significantly increased | – | –
3 | C=C1CC[C@H](O)C/C1=C/C=C1\CCC[C@]2(C)[C@@H]([C@H](C)CCCC(C)C)CC[C@@H]12 [vitamin D, cholecalciferol] | significantly increased | – | –
